Data from PubChem BioAssay AID2060336 (Molecular Pharmacology Branch, DTP, NCI, 2025).

Tested on: 958767-090-R-J1-PDC spheroid growth
Assay: Anticancer human tumor 958767-090-R-J1-PDC patient-derived head and neck squamous carcinoma cell line growth inhibition [IpAb]
Details: spheroids with HUVEC and MSC; for IC50: curve of first compound; for viability, T/C: stronger effect = lower value
How it was run: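 Spheroids of 60% malignant cells, 25% HUVEC and 15% MSC were exposed to targeted agents combined with ipatasertib or abemaciclib. Doses started at or near clinical Cmax (10 microM when unknown) and fell in half-log steps.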

[1] = second compound 0.01 µM, first compound 0.0316 µM
[2] = second compound 0.01 µM, first compound 0.1 µM
[3] = second compound 0.01 µM, first compound 0.316 µM
[4] = second compound 0.01 µM, first compound 1 µM
[5] = second compound 0.0316 µM, first compound 0.0316 µM
[6] = second compound 0.0316 µM, first compound 0.1 µM
[7] = second compound 0.0316 µM, first compound 0.316 µM
[8] = second compound 0.0316 µM, first compound 1 µM
[9] = second compound 0.1 µM, first compound 0.0316 µM
[10] = second compound 0.1 µM, first compound 0.1 µM
[11] = second compound 0.1 µM, first compound 0.316 µM
[12] = second compound 0.1 µM, first compound 1 µM
[13] = second compound 0.316 µM, first compound 0.0316 µM
[14] = second compound 0.316 µM, first compound 0.1 µM
[15] = second compound 0.316 µM, first compound 0.316 µM
[16] = second compound 0.316 µM, first compound 1 µM
[17] = second compound 1 µM, first compound 0.0316 µM
[18] = second compound 1 µM, first compound 0.1 µM
[19] = second compound 1 µM, first compound 0.316 µM
[20] = second compound 1 µM, first compound 1 µM
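For viability, T/C in this document: 100% = DMSO vehicle control wells.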

Row | Compound | IC50 (second compound 0.01 µM) [nM] | IC50 (second compound 0.0316 µM) [nM] | IC50 (second compound 0.1 µM) [nM] | IC50 (second compound 0.316 µM) [nM] | IC50 (second compound 1 µM) [nM] | viability, T/C [1] [%] | viability, T/C [2] [%] | viability, T/C [3] [%] | viability, T/C [4] [%] | viability, T/C [5] [%] | viability, T/C [6] [%] | viability, T/C [7] [%] | viability, T/C [8] [%] | viability, T/C [9] [%] | viability, T/C [10] [%] | viability, T/C [11] [%] | viability, T/C [12] [%] | viability, T/C [13] [%] | viability, T/C [14] [%] | viability, T/C [15] [%] | other results
1 | COc1c(OCCCN2CCOCC2)ccc2c3n(c(=NC(=O)c4cnc(N)nc4)nc12)CCN3 + CCN1CCN(Cc2ccc(Nc3ncc(F)c(-c4cc(F)c5nc(C)n(C(C)C)c5c4)n3)nc2)CC1 | 7.95 | 8.66 | < 3.16 | 4.34 | 13 | 31.5 | 12.7 | 6.31 | 3.91 | 28.5 | 17 | 5.97 | 5.05 | 22.5 | 15.9 | 7.66 | 6.13 | 22.9 | 19.4 | 8.1 | viability, T/C (second compound 0.01 µM, first compound 0.00316 µM): 64.5%; viability, T/C (second compound 0.01 µM, first compound 0.01 µM): 44.5%; viability, T/C (second compound 0.0316 µM, first compound 0.00316 µM): 62.6%; viability, T/C (second compound 0.0316 µM, first compound 0.01 µM): 48.8%; viability, T/C (second compound 0.1 µM, first compound 0.00316 µM): 44.3%; viability, T/C (second compound 0.1 µM, first compound 0.01 µM): 39.5%; viability, T/C (second compound 0.316 µM, first compound 0.00316 µM): 53%; viability, T/C (second compound 0.316 µM, first compound 0.01 µM): 42.6%; viability, T/C [16]: 7.06%; viability, T/C (second compound 1 µM, first compound 0.00316 µM): 74.1%; viability, T/C (second compound 1 µM, first compound 0.01 µM): 53.5%; viability, T/C [17]: 37%; viability, T/C [18]: 26.9%; viability, T/C [19]: 14.7%; viability, T/C [20]: 12.4%
2 | Cc1nc(NC(=O)N2CCCC2C(N)=O)sc1-c1ccnc(C(C)(C)C(F)(F)F)c1 (stereo not given) + CCN1CCN(Cc2ccc(Nc3ncc(F)c(-c4cc(F)c5nc(C)n(C(C)C)c5c4)n3)nc2)CC1 | 171 | 59 | < 31.6 | < 31.6 | 141 | 65.3 | 56.4 | 42.7 | 31.7 | 57.6 | 40.5 | 36.4 | 27.2 | 49.9 | 43.3 | 34.9 | 24.9 | 39.5 | 39.3 | 27.6 | viability, T/C (second compound 0.01 µM, first compound 3.16 µM): 19.3%; viability, T/C (second compound 0.01 µM, first compound 10 µM): 11.2%; viability, T/C (second compound 0.0316 µM, first compound 3.16 µM): 15.9%; viability, T/C (second compound 0.0316 µM, first compound 10 µM): 9.45%; viability, T/C (second compound 0.1 µM, first compound 3.16 µM): 15.8%; viability, T/C (second compound 0.1 µM, first compound 10 µM): 9.36%; viability, T/C [16]: 20.7%; viability, T/C (second compound 0.316 µM, first compound 3.16 µM): 17.1%; viability, T/C (second compound 0.316 µM, first compound 10 µM): 10.8%; viability, T/C [17]: 62.6%; viability, T/C [18]: 56.2%; viability, T/C [19]: 38.3%; viability, T/C [20]: 31.5%; viability, T/C (second compound 1 µM, first compound 3.16 µM): 19.9%; viability, T/C (second compound 1 µM, first compound 10 µM): 13.2%
